Earlier results in patent US20040043089A1, “Buguzhi agent and composition and methods of preparing and administering the same” (priority 2002, published 2004).

Settings: literature statement
For `Cc1cc2cc3c(C)cc(=O)oc3c(C)c2o1` [Trioxsalen], the “Phototoxicity (in words)” value is listed as “weak phototoxicity”.
In the case of `O=c1ccc2ccc3occc3c2o1` [angelicin], the “Phototoxicity (in words)” value is given as “only weakly phototoxic”.
For `COc1c2ccoc2cc2oc(=O)ccc12` [bergapten, 5-methoxypsoralen], the “Phototoxicity (in words)” value is given as “phototoxic”.
For `COc1c2ccoc2c(OC)c2oc(=O)ccc12` [isopimpinellin], the “Phototoxicity (in words)” value is listed as “only weakly phototoxic”.
For `COc1c2occc2c(OC)c2c(=O)cc(C)oc12` [khellin], the “Phototoxicity (in words)” value is given as “weak phototoxicity”.
For `CC(C)=CCc1c(O)ccc2ccc(=O)oc12` [osthenol], the “Phototoxicity (in words)” value is given as “weak phototoxicity”.
In the case of `COc1c(C(C)C)oc2cc3oc(=O)ccc3cc12` [peucedanin], the “Phototoxicity (in words)” value is listed as “weak phototoxicity”.
In the case of `COc1c2occc2cc2ccc(=O)oc12` [xanthotoxin, 8-methoxypsoralen], the “Phototoxicity (in words)” value is given as “phototoxic”.
